Where “and” joins values, the source holds several entries; their conditions need not be identical. Equal values may be shown once.
Tested on: DENV-2 RL strain
Assay: Day 3 viraemia model, high viral inoculum (10^6 PFU)
Assay type: in vivo, AG129 mice
[1] = Study 1+2+3 compiled data, 2 mg/kg/d, individual animals, listed as 64281802-AAA, 2 mg/kg/day
[2] = Study 1+2+3 compiled data, 6 mg/kg/d, individual animals, listed as 64281802-AAA, 6 mg/kg/day
[3] = Study 1+2+3 compiled data, 20 mg/kg/d, individual animals, listed as 64281802-AAA, 20 mg/kg/day
[4] = Study 1+2+3 compiled data, 60 mg/kg/d, individual animals, listed as 64281802-AAA, 60 mg/kg/day
[5] = Study 1 - 160222, 2 mg/kg/d, individual animals, listed as 64281802-AAA
[6] = Study 1 - 160222, 6 mg/kg/d, individual animals, listed as 64281802-AAA
[7] = Study 1 - 160222, 60 mg/kg/d, individual animals, listed as 64281802-AAA
[8] = Study 2 - 160510, 0,6 mg/kg/d, individual animals, listed as 64281802-AAA
[9] = Study 2 - 160510, 2 mg/kg/d, individual animals, listed as 64281802-AAA
[10] = Study 2 - 160510, 6 mg/kg/d, individual animals, listed as 64281802-AAA
[11] = Study 2 - 160510, 20 mg/kg/d, individual animals, listed as 64281802-AAA
[12] = Study 3 - 170410, 0,2 mg/kg/d, first group of 8, individual animals, listed as 64281802-AAA
[13] = Study 3 - 170410, 0,2 mg/kg/d, second group of 8, individual animals, listed as 64281802-AAA
[14] = Study 3 - 170410, 0,6 mg/kg/d, individual animals, listed as 64281802-AAA
[15] = Study 3 - 170410, 20 mg/kg/d, individual animals

Which Copy number [1] does the source give for `COc1cc(N[C@H](C(=O)c2c[nH]c3ccc(OC(F)(F)F)cc23)c2ccc(Cl)cc2OC)cc(S(C)(=O)=O)c1` [JNJ-1802] here?
Its Copy number is 8.93E+05 and 4.00E+05 and 3.96E+05 and 1.24E+06 and 6.51E+05 and 1.32E+04 and 2.02E+05 and 2.06E+04.

What about the “Log 10 (copy number)” value [1] of the same molecule?
The value was 5.95 and 5.60 and 6.09 and 5.81 and 3.95.

What about the “Av Log 10 (average)” value (Study 1+2+3 compiled data, 6 mg/kg/d, group average) of the same molecule?
The value was 4.33.

What about the “Av Log 10 (Ave/Med: median)” value (Study 1+2+3 compiled data, 6 mg/kg/d, group median) of the same molecule?
The value was 4.37.

And the Copy number [2]?
The Copy number was 5.85E+04 and 1.40E+05 and 1.03E+05 and 2.15E+04 and 1.94E+05 and 8.27E+04 and 1.06E+04 and 2.60E+04 and 9.12E+03 and 5.17E+03 and 3.62E+04 and 5.97E+03 and 3.93E+02.

And the “Log 10 (copy number)” value [2]?
The value was 4.77 and 5.15 and 5.01 and 4.33 and 5.29 and 4.92 and 4.03 and 4.41 and 3.96 and 3.71 and 4.56 and 4.11 and 3.78 and 2.59.

And the “Av Log 10 (average)” value (Study 1+2+3 compiled data, 20 mg/kg/d, group average)?
The value was 2.70.

What about the “Av Log 10 (Ave/Med: median)” value (Study 1+2+3 compiled data, 20 mg/kg/d, group median) of the same molecule?
The value was 2.59.

What about the Copy number [3] of the same molecule?
Its Copy number is 1.05E+04 and 3.93E+02.

And the “Log 10 (copy number)” value [3]?
Its value is 4.02 and 2.59.

And the “Av Log 10 (average)” value (Study 1+2+3 compiled data, 60 mg/kg/d, group average)?
Its value is 3.05.

And the “Av Log 10 (Ave/Med: median)” value (Study 1+2+3 compiled data, 60 mg/kg/d, group median)?
Its value is 2.59.

What about the Copy number [4] of the same molecule?
The Copy number was 3.93E+02 and 1.22E+04 and 1.55E+03 and 5.28E+03.

What about the “Log 10 (copy number)” value [4] of the same molecule?
Its value is 2.59 and 4.09 and 3.19 and 3.72.

And the “Av Log 10 (average)” value (Study 1 - 160222, 2 mg/kg/d, group average)?
The value was 5.30.

What about the “Av Log 10 (Ave/Med: median)” value (Study 1 - 160222, 2 mg/kg/d, group median) of the same molecule?
Its value is 5.60.

What about the Copy number [5] of the same molecule?
The Copy number was 8.93E+05 and 4.00E+05 and 3.96E+05 and 1.24E+06 and 6.51E+05 and 1.32E+04 and 2.02E+05.

And the “Log 10 (copy number)” value [5]?
Its value is 5.95 and 5.60 and 6.09 and 5.81 and 3.95 and 4.12 and 5.30.

And the “Av Log 10 (average)” value (Study 1 - 160222, 6 mg/kg/d, group average)?
The value was 4.74.

And the “Av Log 10 (Ave/Med: median)” value (Study 1 - 160222, 6 mg/kg/d, group median)?
The value was 4.84.

And the Copy number [6]?
The Copy number was 5.85E+04 and 1.40E+05 and 1.03E+05 and 2.15E+04 and 1.94E+05 and 8.27E+04 and 1.06E+04 and 2.60E+04.

What about the “Log 10 (copy number)” value [6] of the same molecule?
Its value is 4.77 and 5.15 and 5.01 and 4.33 and 5.29 and 4.92 and 4.03 and 4.41.

And the “Av Log 10 (average)” value (Study 1 - 160222, 60 mg/kg/d, group average)?
Its value is 3.05.

What about the “Av Log 10 (Ave/Med: median)” value (Study 1 - 160222, 60 mg/kg/d, group median) of the same molecule?
The value was 2.59.

And the Copy number [7]?
The Copy number was 3.93E+02 and 1.22E+04 and 1.55E+03 and 5.28E+03.

What about the “Log 10 (copy number)” value [7] of the same molecule?
Its value is 2.59 and 4.09 and 3.19 and 3.72.

What about the “Av Log 10 (average)” value (Study 2 - 160510, 0,6 mg/kg/d, group average) of the same molecule?
The value was 4.52.

What about the “Av Log 10 (Ave/Med: median)” value (Study 2 - 160510, 0,6 mg/kg/d, group median) of the same molecule?
The value was 4.66.

What about the Copy number [8] of the same molecule?
The Copy number was 3.02E+04 and 4.20E+05 and 7.57E+04 and 6.60E+04 and 3.93E+02 and 1.74E+04 and 1.01E+05 and 3.12E+04.

And the “Log 10 (copy number)” value [8]?
The value was 4.48 and 5.62 and 4.88 and 4.82 and 2.59 and 4.24 and 5.00 and 4.49.

What about the “Av Log 10 (average)” value (Study 2 - 160510, 2 mg/kg/d, group average) of the same molecule?
Its value is 4.07.

And the “Av Log 10 (Ave/Med: median)” value (Study 2 - 160510, 2 mg/kg/d, group median)?
The value was 4.30.

And the Copy number [9]?
Its Copy number is 2.06E+04 and 6.20E+04 and 1.87E+04 and 2.60E+04 and 3.93E+02 and 1.87E+05.

What about the “Log 10 (copy number)” value [9] of the same molecule?
Its value is 4.31 and 4.28 and 4.79 and 4.27 and 4.41 and 2.59 and 5.27.

And the “Av Log 10 (average)” value (Study 2 - 160510, 6 mg/kg/d, group average)?
Its value is 3.78.

And the “Av Log 10 (Ave/Med: median)” value (Study 2 - 160510, 6 mg/kg/d, group median)?
Its value is 3.87.

And the Copy number [10]?
The Copy number was 9.12E+03 and 5.17E+03 and 3.62E+04 and 5.97E+03 and 3.93E+02.

And the “Log 10 (copy number)” value [10]?
The value was 3.96 and 3.71 and 4.56 and 4.11 and 3.78 and 2.59.

What about the “Av Log 10 (average)” value (Study 2 - 160510, 20 mg/kg/d, group average) of the same molecule?
The value was 2.83.

What about the “Av Log 10 (Ave/Med: median)” value (Study 2 - 160510, 20 mg/kg/d, group median) of the same molecule?
The value was 2.59.

And the Copy number [11]?
Its Copy number is 1.05E+04 and 3.93E+02.

What about the “Log 10 (copy number)” value [11] of the same molecule?
Its value is 4.02 and 2.59.

And the “Av Log 10 (average)” value (Study 3 - 170410, 0,2 mg/kg/d, first group of 8, group average)?
The value was 6.01.

What about the “Av Log 10 (Ave/Med: median)” value (Study 3 - 170410, 0,2 mg/kg/d, first group of 8, group median) of the same molecule?
The value was 6.07.

And the Copy number [12]?
Its Copy number is 1.86E+06 and 1.20E+06 and 1.13E+06 and 8.80E+05 and 2.24E+05 and 2.37E+06.

What about the “Log 10 (copy number)” value [12] of the same molecule?
Its value is 6.27 and 6.08 and 6.05 and 5.94 and 5.35 and 6.38.

What about the “Av Log 10 (average)” value (Study 3 - 170410, 0,2 mg/kg/d, second group of 8, group average) of the same molecule?
Its value is 5.85.

And the “Av Log 10 (Ave/Med: median)” value (Study 3 - 170410, 0,2 mg/kg/d, second group of 8, group median)?
The value was 6.03.

What about the Copy number [13] of the same molecule?
Its Copy number is 1.58E+06 and 7.37E+04 and 5.97E+06 and 8.67E+05 and 1.42E+06 and 1.06E+06 and 9.43E+04.

What about the “Log 10 (copy number)” value [13] of the same molecule?
Its value is 6.20 and 4.87 and 6.78 and 5.94 and 6.15 and 6.03 and 4.97.

And the “Av Log 10 (average)” value (Study 3 - 170410, 0,6 mg/kg/d, group average)?
Its value is 3.92.

And the “Av Log 10 (Ave/Med: median)” value (Study 3 - 170410, 0,6 mg/kg/d, group median)?
The value was 4.48.

What about the Copy number [14] of the same molecule?
The Copy number was 3.45E+04 and 2.62E+04 and 3.90E+04 and 3.93E+02.

What about the “Log 10 (copy number)” value [14] of the same molecule?
Its value is 5.16 and 4.86 and 4.54 and 4.42 and 4.59 and 2.59.

And the “Av Log 10 (average)” value (Study 3 - 170410, 20 mg/kg/d, group average)?
Its value is 2.59.

What about the “Av Log 10 (Ave/Med: median)” value (Study 3 - 170410, 20 mg/kg/d, group median) of the same molecule?
Its value is 2.59.

What about the Copy number [15] of the same molecule?
The Copy number was 3.93E+02.

And the “Log 10 (copy number)” value [15]?
The value was 2.59.

And the Copy number (mouse, in vivo, 6 mg/kg/day)?
The Copy number was 1.28E+04.
